{"source": "patent US12441691B2", "about": "(Cytokinetics, Inc., priority 2020, dated 2025)", "data": [{"system": "rabbit skeletal myofibrils (fast skeletal myofibrils)", "experiment": "Activation of fast skeletal myofibrils (PUMA assay, AC1.4)", "assay_type": "biochemical", "conditions": "calcium at pCa25, AC1.4 = concentration at which the compound increased the enzymatic activity", "procedure": "Preparation of fast skeletal myofibrils: Rabbit skeletal myofibrils were prepared based upon the method of Herrmann et al. (Biochem. 32(28):7255-7263(1993). Myofibrils were prepared from rabbit psoas muscle purchased from Pel-Freez Biologicals (Arkansas) within 2 days of ordering, stored on ice. Minced muscle was homogenized in 10 volumes of ice-cold “standard” buffer (50 mM Tris, pH 7.4, 0.1 M KOAc, 5 mM KCl, 2 mM dithiothreitol (DTT), 0.2 mM phenylmethylsulfonyl fluoride (PMSF), 10 μM leupeptin, 5 μM pepstatin, and 0.5 mM sodium azide) containing 5 mM ethylenediaminetetraacetic acid (EDTA) and 0.5% Triton X-100 using an Omni-Macro homogenizer. Myofibrils were recovered by low speed centrifugation (3000 rpm for 10 minutes) and washed 2 times in the Triton X-100 containing buffer to ensure removal of cellular membrane. Following the Triton washes, myofibrils were washed 3 times in “standard” buffer containing 2 mM magnesium acetate. A final wash in assay buffer (12 mM piperazine-1,4-bis(2-ethanesulfonic acid) (PIPES), pH 6.8, 60 mM KCl, 1 mM DTT) was performed and brought to 10% sucrose for flash freezing in liquid nitrogen and storage at −80° C.\nActivation of Fast Skeletal Myofibrils: Fast fiber activators were identified by measuring the enzymatic activity of muscle myofibril preparations using the proprietary PUMA (trademark) (see, e.g., U.S. Pat. Nos. 6,410,254, 6,743,599, 7,202,051, and 7,378,254) assay system. Myofibril preparations consisted of rabbit skeletal muscle (approximately 90% fast fibers) that had been mechanically homogenized and washed with a detergent (Triton X-100) to remove cellular membranes. This preparation retained all of the sarcomeric components in a native conformation and the enzymatic activity was still regulated by calcium. Compounds were tested using a myofibril suspension and a level of calcium sufficient to increase enzymatic activity of the myofibrils to 25% of their maximal rate (termed pCa25). Enzymatic activity was tracked via a pyruvate kinase and lactate dehydrogenase-coupled enzyme system. This assay regenerates myosin-produced ADP into ATP by oxidizing NADH, producing an absorbance change at 340 nm. The buffering system was 12 mM PIPES, 2 mM MgCl2, 1 mM DTT at pH 6.8 (PM12 buffer). […] In Table 9, “Example Compound” refers to the compound labeled with the same number in Table 2.", "units": {"AC1.4": "µM"}, "values": [{"smiles": "CC[C@H](C)[C@H]1C(=O)Nc2cc(F)ccc2CN1C(=O)CCO", "note": "[Compound 43, (S)-3-((S)-sec-butyl)-8-fluoro-4-(3-hydroxypropanoyl)-1,3,4,5-tetrahydro-2H-benzo[e][1,4]diazepin-2-one]", "AC1.4": 0.81}, {"smiles": "CC[C@H](C)[C@H]1C(=O)Nc2c(F)cccc2CN1C(N)=O", "note": "[Compound 44, (S)-3-((S)-sec-butyl)-9-fluoro-2-oxo-1,2,3,5-tetrahydro-4H-benzo[e][1,4]diazepine-4-carboxamide]", "AC1.4": 0.26}, {"smiles": "CC[C@H](C)[C@H]1C(=O)Nc2ccccc2CN1C(=O)c1cn[nH]c1", "note": "[Compound 45, (S)-3-((S)-sec-butyl)-4-(1H-pyrazole-4-carbonyl)-1,3,4,5-tetrahydro-2H-benzo[e][1,4]diazepin-2-one]", "AC1.4": 0.08}, {"smiles": "CC[C@H](C)[C@H]1C(=O)Nc2ccccc2CN1C(=O)c1cnn(C)c1", "note": "[Compound 46, (S)-3-((S)-sec-butyl)-4-(1-methyl-1H-pyrazole-4-carbonyl)-1,3,4,5-tetrahydro-2H-benzo[e][1,4]diazepin-2-one]", "AC1.4": 0.13}, {"smiles": "CC[C@H](C)[C@H]1C(=O)Nc2ccccc2CN1C(=O)c1cccc(=O)[nH]1", "note": "[Compound 47, (S)-3-((S)-sec-butyl)-4-(6-oxo-1,6-dihydropyridine-2-carbonyl)-1,3,4,5-tetrahydro-2H-benzo[e][1,4]diazepin-2-one]", "AC1.4": 0.14}, {"smiles": "CC[C@H](C)[C@H]1C(=O)Nc2ccccc2CN1C(=O)c1cc[nH]c(=O)c1", "note": "[Compound 48, (S)-3-((S)-sec-butyl)-4-(2-oxo-1,2-dihydropyridine-4-carbonyl)-1,3,4,5-tetrahydro-2H-benzo[d][1,4]diazepin-2-one]", "AC1.4": 0.06}, {"smiles": "CC[C@H](C)[C@H]1C(=O)Nc2ccccc2CN1C(=O)c1cc(O)n[nH]1", "note": "[Compound 50, (S)-3-((S)-sec-butyl)-4-(3-hydroxy-1H-pyrazole-5-carbonyl)-1,3,4,5-tetrahydro-2H-benzo[e][1,4]diazepin-2-one]", "AC1.4": 0.17}, {"smiles": "CC[C@H](C)[C@H]1C(=O)Nc2ccccc2CN1C(=O)C(C)(C)O", "note": "[Compound 51, (S)-3-((S)-sec-Butyl)-4-(2-hydroxy-2-methylpropanoyl)-1,3,4,5-tetrahydro-2H-benzo[e][1,4]diazepin-2-one]", "AC1.4": 1.23}, {"smiles": "CC[C@H](C)[C@H]1C(=O)Nc2ccccc2CN1c1nc(N)cc(=O)[nH]1", "note": "[Compound 52, (S)-4-(4-Amino-6-oxo-1,6-dihydropyrimidin-2-yl)-3-((S)-sec-butyl)-1,3,4,5-tetrahydro-2H-benzo[e][1,4]diazepin-2-one]", "AC1.4": 0.03}, {"smiles": "CC[C@H](C)[C@H]1C(=O)Nc2ccccc2CN1c1nc(C)cc(=O)[nH]1", "note": "[Compound 53, (S)-3-((S)-sec-Butyl)-4-(4-methyl-6-oxo-1,6-dihydropyrimidin-2-yl)-1,3,4,5-tetrahydro-2H-benzo[e][1,4]diazepin-2-one]", "AC1.4": 0.10}, {"smiles": "CC[C@H](C)[C@H]1C(=O)Nc2ccccc2CN1c1cc(=O)[nH]cn1", "note": "[Compound 54, (S)-3-((S)-sec-butyl)-4-(6-oxo-1,6-dihydropyrimidin-4-yl)-1,3,4,5-tetrahydro-2H-benzo[e][1,4]diazepin-2-one]", "AC1.4": 0.09}, {"smiles": "CC[C@H](C)[C@H]1C(=O)Nc2ccccc2CN1c1noc(C)n1", "note": "[Compound 55, (S)-3-((S)-sec-Butyl)-4-(5-methyl-1,2,4-oxadiazol-3-yl)-1,3,4,5-tetrahydro-2H-benzo[e][1,4]diazepin-2-one]", "AC1.4": 0.21}, {"smiles": "CC[C@H](C)[C@H]1C(=O)Nc2ccccc2CN1c1ncon1", "note": "[Compound 56, (S)-3-((S)-sec-Butyl)-4-(1,2,4-oxadiazol-3-yl)-1,3,4,5-tetrahydro-2H-benzo[e][1,4]diazepin-2-one]", "AC1.4": 0.08}, {"smiles": "CC[C@H](C)[C@H]1C(=O)Nc2ccccc2CN1c1c(N)c(=O)c1=O", "note": "[Compound 57, 3-Amino-4-((S)-3-((S)-sec-butyl)-2-oxo-1,2,3,5-tetrahydro-4H-benzo[e][1,4]diazepin-4-yl)cyclobut-3-ene-1,2-dione]", "AC1.4": 0.03}, {"smiles": "CC[C@H](C)[C@H]1C(=O)Nc2ccccc2CN1C(=O)N(C)C", "note": "[Compound 58, (S)-3-((S)-sec-butyl)-N,N-dimethyl-2-oxo-1,2,3,5-tetrahydro-4H-benzo[e][1,4]diazepine-4-carboxamide]", "AC1.4": 0.13}, {"smiles": "CC[C@H](C)[C@H]1C(=O)Nc2ccccc2CN1C(=O)N1CC(OC)C1", "note": "[Compound 59, (S)-3-((S)-sec-butyl)-4-(3-methoxyazetidine-1-carbonyl)-1,3,4,5-tetrahydro-2H-benzo[e][1,4]diazepin-2-one]", "AC1.4": 0.17}, {"smiles": "CC[C@H](C)[C@H]1C(=O)Nc2ccccc2CN1c1ncc(N)c(OC)n1", "note": "[Compound 60, (S)-4-(5-Amino-4-methoxypyrimidin-2-yl)-3-((S)-sec-butyl)-1,3,4,5-tetrahydro-2H-benzo[e][1,4]diazepin-2-one]", "AC1.4": 0.07}, {"smiles": "CC[C@H](C)[C@H]1C(=O)Nc2ccccc2CN1c1ncncn1", "note": "[Compound 61, (S)-3-((S)-sec-Butyl)-4-(1,3,5-triazin-2-yl)-1,3,4,5-tetrahydro-2H-benzo[e][1,4]diazepin-2-one]", "AC1.4": 0.07}, {"smiles": "CC[C@H](C)[C@H]1C(=O)Nc2ccccc2CN1CCO", "note": "[Compound 62, (S)-3-((S)-sec-Butyl)-4-(2-hydroxyethyl)-1,3,4,5-tetrahydro-2H-benzo[e][1,4]diazepin-2-one]", "AC1.4": 2.25}, {"smiles": "CC[C@H](C)[C@H]1C(=O)Nc2ccccc2C(C)(C)N1C(N)=O", "note": "[Compound 63, (S)-3-((S)-sec-Butyl)-5,5-dimethyl-2-oxo-1,2,3,5-tetrahydro-4H-benzo[e][1,4]diazepine-4-carboxamide]", "AC1.4": 0.10}, {"smiles": "CC[C@H](C)[C@H]1C(=O)Nc2cccc(Cl)c2CN1C(=O)N1CC(O)C1", "note": "[Compound 66, (S)-3-((S)-sec-butyl)-6-chloro-4-(3-hydroxyazetidine-1-carbonyl)-1,3,4,5-tetrahydro-2H-benzo[e][1,4]diazepin-2-one]", "AC1.4": 3.00}, {"smiles": "CC[C@H](C)[C@H]1C(=O)Nc2cccc(Br)c2CN1C(N)=O", "note": "[Compound 67, (S)-6-bromo-3-((S)-sec-butyl)-2-oxo-1,2,3,5-tetrahydro-4H-benzo[e][1,4]diazepine-4-carboxamide]", "AC1.4": 2.15}, {"smiles": "CC[C@H](C)[C@H]1C(=O)Nc2cccc(C3CC3)c2CN1C(N)=O", "note": "[Compound 68, (S)-3-((S)-sec-butyl)-6-cyclopropyl-2-oxo-1,2,3,5-tetrahydro-4H-benzo[e][1,4]diazepine-4-carboxamide]", "AC1.4": 4.30}, {"smiles": "CC[C@H](C)[C@H]1C(=O)Nc2ccc(F)cc2CN1C(C)=O", "note": "[Compound 69, (S)-4-acetyl-3-((S)-sec-butyl)-7-fluoro-1,3,4,5-tetrahydro-2H-benzo[e][1,4]diazepin-2-one]", "AC1.4": 0.72}, {"smiles": "CC[C@H](C)[C@H]1C(=O)Nc2ccc(F)cc2CN1C(=O)c1ccn[nH]1", "note": "[Compound 70, (S)-3-((S)-sec-butyl)-7-fluoro-4-(1H-pyrazole-5-carbonyl)-1,3,4,5-tetrahydro-2H-benzo[e][1,4]diazepin-2-one]", "AC1.4": 0.23}, {"smiles": "CC[C@H](C)[C@H]1C(=O)Nc2ccc(F)cc2CN1/C(N)=N\\C#N", "note": "[Compound 71, (S,Z)-3-((S)-sec-butyl)-N′-cyano-7-fluoro-2-oxo-1,2,3,5-tetrahydro-4H-benzo[e][1,4]diazepine-4-carboximidamide]", "AC1.4": 0.15}, {"smiles": "CC[C@H](C)[C@H]1C(=O)Nc2ccc(F)cc2CN1C(=O)N1CC(O)C1", "note": "[Compound 72, (S)-3-((S)-sec-butyl)-7-fluoro-4-(3-hydroxyazetidine-1-carbonyl)-1,3,4,5-tetrahydro-2H-benzo[e][1,4]diazepin-2-one]", "AC1.4": 0.41}, {"smiles": "CC[C@H](C)[C@H]1C(=O)Nc2ccc(Cl)cc2CN1C(N)=O", "note": "[Compound 73, (S)-3-((S)-sec-butyl)-7-chloro-2-oxo-1,2,3,5-tetrahydro-4H-benzo[e][1,4]diazepine-4-carboxamide]", "AC1.4": 0.93}, {"smiles": "CC[C@H](C)[C@H]1C(=O)Nc2ccc(C3CC3)cc2CN1C(N)=O", "note": "[Compound 74, (S)-3-((S)-sec-butyl)-7-cyclopropyl-2-oxo-1,2,3,5-tetrahydro-4H-benzo[e][1,4]diazepine-4-carboxamide]", "AC1.4": 2.39}, {"smiles": "CC[C@H](C)[C@H]1C(=O)Nc2cc(F)ccc2CN1C(N)=O", "note": "[Compound 75, (S)-3-((S)-sec-butyl)-8-fluoro-2-oxo-1,2,3,5-tetrahydro-4H-benzo[e][1,4]diazepine-4-carboxamide]", "AC1.4": 0.13}, {"smiles": "CC[C@H](C)[C@H]1C(=O)Nc2cc(F)ccc2CN1C(=O)N1CC(O)C1", "note": "[Compound 76, (S)-3-((S)-sec-butyl)-8-fluoro-4-(3-hydroxyazetidine-1-carbonyl)-1,3,4,5-tetrahydro-2H-benzo[e][1,4]diazepin-2-one]", "AC1.4": 0.14}]}]}
